Key:
Test in all cases: Glasshouse herbicide test, pre- and post-emergence
Format in all cases: in vivo
Lolium perenne (LOLPE) = conditions: 250 g/h, evaluated after 13 days, five-point scale; for percentage damage caused to the plant, LOLPE POST: post-emergence; for percentage damage caused to the plant, LOLPE PRE: pre-emergence
Protocol: (§1) Seeds of a variety of test species are sown in standard soil in pots (Lolium perenne (LOLPE), Setaria faberi (SETFA), Alopecurus myosuroides (ALOMY), Echinochloa crus-galli (ECHCG), Avena fatua (AVEFA)). After cultivation for one day (pre-emergence) or after 8 days cultivation (post-emergence) under controlled conditions in a glasshouse (at 24/16° C., day/night; 14 hours light; 65% humidity), the plants are sprayed with an aqueous spray solution derived from the formulation of the technical active ingredient in acetone/water (50:50) solution containing 0.5% Tween 20 (polyoxyethelyene sorbitan monolaurate, CAS RN 9005-64-5). Compounds are applied at 250 g/h. The test plants are then grown in a glasshouse under controlled conditions in a glasshouse (at 24/16° C., day/night; 14 hours light; 65% humidity) and watered twice daily. After 13 days for pre and post-emergence, the test is evaluated for the percentage damage caused to the plant. The biological activities are shown in the following table on a five-point scale (5=80-100%; 4=60-79%; 3=40-59%; 2=20-39%; 1=0-19%).

[1] = test system: Alopecurus myosuroides (ALOMY); conditions: 250 g/h, evaluated after 13 days, five-point scale; for percentage damage caused to the plant, ALOMY POST: post-emergence; for percentage damage caused to the plant, ALOMY PRE: pre-emergence
Protocol: as §1

Setaria faberi (SETFA) = conditions: 250 g/h, evaluated after 13 days, five-point scale; for percentage damage caused to the plant, SETFA POST: post-emergence; for percentage damage caused to the plant, SETFA PRE: pre-emergence
Protocol: as §1

Avena fatua (AVEFA) = conditions: 250 g/h, evaluated after 13 days, five-point scale; for percentage damage caused to the plant, AVEFA POST: post-emergence; for percentage damage caused to the plant, AVEFA PRE: pre-emergence
Protocol: as §1

[2] = test system: Echinochloa crus-galli (ECHCG); conditions: 250 g/h, evaluated after 13 days, five-point scale; for percentage damage caused to the plant, ECHCG POST: post-emergence; for percentage damage caused to the plant, ECHCG PRE: pre-emergence
Protocol: as §1

Structure (SMILES) | percentage damage caused to the plant, LOLPE POST (Lolium perenne (LOLPE)) | percentage damage caused to the plant, LOLPE PRE (Lolium perenne (LOLPE)) | percentage damage caused to the plant, ALOMY POST [1] | percentage damage caused to the plant, ALOMY PRE [1] | percentage damage caused to the plant, SETFA POST (Setaria faberi (SETFA)) | percentage damage caused to the plant, SETFA PRE (Setaria faberi (SETFA)) | percentage damage caused to the plant, AVEFA POST (Avena fatua (AVEFA)) | percentage damage caused to the plant, AVEFA PRE (Avena fatua (AVEFA)) | percentage damage caused to the plant, ECHCG POST [2] | percentage damage caused to the plant, ECHCG PRE [2]
CC#Cc1cc(C)c(C2C(=O)CC3(CCC(C(=O)N(C)C)CC3)CC2=O)c(C)c1 (centres unmarked) [Compound 1.001] | 5 (5=80-100%) | 5 (5=80-100%) | 5 (5=80-100%) | 5 (5=80-100%) | 5 (5=80-100%) | 5 (5=80-100%) | 5 (5=80-100%) | 5 (5=80-100%) | 5 (5=80-100%) | 5 (5=80-100%)
CC#Cc1cc(C)c(C2C(=O)CC3(CCC(C(=O)NC)CC3)CC2=O)c(C)c1 (centres unmarked) [Compound 1.002, 3-(2,6-dimethyl-4-prop-1-ynyl-phenyl)-N-methyl-2,4-dioxo-spiro[5.5]undecane-9-carboxamide] | 5 (5=80-100%) | 5 (5=80-100%) | 5 (5=80-100%) | 5 (5=80-100%) | 5 (5=80-100%) | 5 (5=80-100%) | 5 (5=80-100%) | 5 (5=80-100%) | 5 (5=80-100%) | 5 (5=80-100%)
CC#Cc1cc(C)c(C2C(=O)CC3(CCC(C(=O)NC(=O)c4ccccn4)CC3)CC2=O)c(C)c1 (centres unmarked) [Compound 1.003] | 5 (5=80-100%) | 4 (4=60-79%) | 5 (5=80-100%) | 4 (4=60-79%) | 5 (5=80-100%) | 5 (5=80-100%) | 5 (5=80-100%) | 4 (4=60-79%) | 5 (5=80-100%) | 5 (5=80-100%)
CC#Cc1cc(C)c(C2C(=O)CC3(CCC(C(=O)Nc4ccccn4)CC3)CC2=O)c(C)c1 (centres unmarked) [Compound 1.004] | 4 (4=60-79%) | 4 (4=60-79%) | 4 (4=60-79%) | 3 (3=40-59%) | 4 (4=60-79%) | 5 (5=80-100%) | 5 (5=80-100%) | 4 (4=60-79%) | 4 (4=60-79%) | 5 (5=80-100%)
CC#Cc1cc(C)c(C2C(=O)CC3(CCC(C(=O)N4CCOCC4=O)CC3)CC2=O)c(C)c1 (centres unmarked) [Compound 1.005] | 5 (5=80-100%) | 5 (5=80-100%) | 4 (4=60-79%) | 3 (3=40-59%) | 5 (5=80-100%) | 5 (5=80-100%) | 5 (5=80-100%) | 4 (4=60-79%) | 5 (5=80-100%) | 5 (5=80-100%)
CC#Cc1cc(C)c(C2C(=O)CC3(CCC(C(=O)N4CCS(=O)(=O)CC4)CC3)CC2=O)c(C)c1 (centres unmarked) [Compound 1.007] | 5 (5=80-100%) | 5 (5=80-100%) | 5 (5=80-100%) | 3 (3=40-59%) | 5 (5=80-100%) | 4 (4=60-79%) | 5 (5=80-100%) | 3 (3=40-59%) | 5 (5=80-100%) | 5 (5=80-100%)
CC#Cc1cc(C)c(C2C(=O)CC3(CCC(C(=O)N4CCOCC4)CC3)CC2=O)c(C)c1 (centres unmarked) [Compound 1.008] | 5 (5=80-100%) | 5 (5=80-100%) | 5 (5=80-100%) | 4 (4=60-79%) | 4 (4=60-79%) | 5 (5=80-100%) | 5 (5=80-100%) | 3 (3=40-59%) | 5 (5=80-100%) | 5 (5=80-100%)
CC#Cc1cc(C)c(C2C(=O)CC3(CCC(C(=O)N(C)CCO)CC3)CC2=O)c(C)c1 (centres unmarked) [Compound 1.009] | 5 (5=80-100%) | 5 (5=80-100%) | 5 (5=80-100%) | 4 (4=60-79%) | 5 (5=80-100%) | 3 (3=40-59%) | 5 (5=80-100%) | 3 (3=40-59%) | 5 (5=80-100%) | 4 (4=60-79%)
CC#Cc1cc(C)c(C2C(=O)CC3(CCC(C(=O)NOC)CC3)CC2=O)c(C)c1 (centres unmarked) [Compound 1.010] | 5 (5=80-100%) | 5 (5=80-100%) | 4 (4=60-79%) | 3 (3=40-59%) | 5 (5=80-100%) | 5 (5=80-100%) | 5 (5=80-100%) | 3 (3=40-59%) | 5 (5=80-100%) | 5 (5=80-100%)
CC#Cc1cc(C)c(C2C(=O)CC3(CCC(C(=O)NCCOC)CC3)CC2=O)c(C)c1 (centres unmarked) [Compound 1.011] | 5 (5=80-100%) | 5 (5=80-100%) | 5 (5=80-100%) | 5 (5=80-100%) | 5 (5=80-100%) | 5 (5=80-100%) | 5 (5=80-100%) | 5 (5=80-100%) | 5 (5=80-100%) | 5 (5=80-100%)
CC#Cc1cc(C)c(C2C(=O)CC3(CCC(C(=O)NCCO)CC3)CC2=O)c(C)c1 (centres unmarked) [Compound 1.012] | 4 (4=60-79%) | 4 (4=60-79%) | 4 (4=60-79%) | 4 (4=60-79%) | 5 (5=80-100%) | 4 (4=60-79%) | 4 (4=60-79%) | 4 (4=60-79%) | 5 (5=80-100%) | 4 (4=60-79%)
